Read-outs that look alike come from different tables or passages of the source.
Legend:
[1] = target: T1, BRAFV600E full-length (amino acids 2-766) (Homo sapiens, UniProt P15056, V600E); test: B-Raf Accelerated MEK ATPase assay (BRAMA); type: biochemical; conditions: categorized
T1 construct: His6-tagged BRAFV600E full-length (amino acids 2-766); His6; made in house; host or cells: baculovirus expression system (insect cells)
How it was run: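 Coupled-enzyme readout: ADP generated by MEK-mediated ATP hydrolysis, uncoupled from ERK phosphorylation, is linked to NADH oxidation through pyruvate kinase and lactate dehydrogenase.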

[2] = system: Human colon tumor cells (Colo205); test: Cell growth inhibition assay (CellTiter-Glo), Colo205; type: cell-based
How it was run: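 Growth is estimated from total cellular ATP measured by CellTiter-Glo luminescence after a 3-day compound exposure at 37 °C. Compounds are tested as 1:3 dilution series in 0.2% final DMSO, with inhibition expressed relative to vehicle-treated wells.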

[3] = system: Human melanoma cancer cells (SK-MEL-28); test: Cell growth inhibition assay (CellTiter-Glo), SK-MEL-28; type: cell-based
[4] = B-Raf Activity, Table 1a, highest pIC50 for the one or more runs
[5] = Table 1b, later runs, average pIC50 for the one or more runs, read-out: B-Raf pIC50 (converted)
[6] = COLO 205, 72 h, Table 2a, 3 days incubation, read-out: Activity in Colo205 Tumor Cells
[7] = COLO 205, Table 2b, later runs, average for the one or more runs, categorized, read-out: IC50 for Colo205
[8] = SK-MEL-28, 72 h, Table 3a, 3 days incubation, read-out: Activity in SK-MEL-28 Tumor Cells
[9] = SK-MEL-28, Table 3b, later runs, average for the one or more runs, categorized, read-out: IC50 for SK-MEL-28
[10] = B-Raf pIC50, Table 1b, later runs, average pIC50 for the one or more runs

T1 sequence (P15056 2-766 V600E): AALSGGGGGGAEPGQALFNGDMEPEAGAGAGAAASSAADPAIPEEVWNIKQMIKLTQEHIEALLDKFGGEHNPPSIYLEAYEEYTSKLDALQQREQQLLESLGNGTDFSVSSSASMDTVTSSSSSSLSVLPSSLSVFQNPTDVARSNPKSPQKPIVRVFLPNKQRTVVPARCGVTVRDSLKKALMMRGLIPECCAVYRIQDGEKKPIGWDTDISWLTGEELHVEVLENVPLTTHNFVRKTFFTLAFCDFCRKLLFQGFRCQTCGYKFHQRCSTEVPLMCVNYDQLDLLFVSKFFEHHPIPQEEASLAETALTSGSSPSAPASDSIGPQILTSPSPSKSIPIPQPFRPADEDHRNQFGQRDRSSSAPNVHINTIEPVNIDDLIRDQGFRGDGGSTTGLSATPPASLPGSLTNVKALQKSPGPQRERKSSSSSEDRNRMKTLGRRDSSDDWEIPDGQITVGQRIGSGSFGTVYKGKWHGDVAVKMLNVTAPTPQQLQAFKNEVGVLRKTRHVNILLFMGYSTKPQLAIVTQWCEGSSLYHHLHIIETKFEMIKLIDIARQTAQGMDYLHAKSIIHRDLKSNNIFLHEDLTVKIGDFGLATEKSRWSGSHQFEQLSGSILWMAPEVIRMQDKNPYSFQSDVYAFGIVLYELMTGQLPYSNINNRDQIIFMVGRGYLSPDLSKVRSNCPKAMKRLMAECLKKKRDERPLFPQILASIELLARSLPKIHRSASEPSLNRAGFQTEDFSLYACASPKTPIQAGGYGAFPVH

Row | SMILES | IC50 [1, 4] | IC50 [1, 5] | IC50 [2, 6] | IC50 [2, 7] | IC50 [3, 8] | IC50 [3, 9] | IC50 [1, 10]
1 | CC(C)CNc1nccc(-c2sc(C(C)(C)C)nc2-c2cccc(NS(=O)(=O)c3c(F)cccc3F)c2F)n1 [Example 134] | < 0.1 µM | 0.00316 to 0.0316 µM | 0.1 to 1 µM | 0.1 to 1 µM | 0.1 to 1 µM | 0.1 to 1 µM | 
2 | CC(C)Nc1nccc(-c2sc(C(C)(C)C)nc2-c2cccc(NS(=O)(=O)c3c(F)cccc3F)c2F)n1 [Example 135] | < 0.1 µM |  | 0.1 to 1 µM | 0.1 to 1 µM | < 0.1 µM | < 0.1 µM | ≤ 0.00316 µM
3 | CC(C)Nc1nccc(-c2sc(N3CCOCC3)nc2-c2cccc(NS(=O)(=O)c3c(F)cccc3F)c2F)n1 [Example 136] | < 0.1 µM | 0.00316 to 0.0316 µM | 0.1 to 1 µM | 0.1 to 1 µM | 0.1 to 1 µM | 0.1 to 1 µM | 
4 | CC(C)(C)c1nc(-c2cccc(NS(=O)(=O)c3cc(F)ccc3F)c2F)c(-c2ccnc(NC3CCOCC3)n2)s1 [Example 138] | < 0.1 µM |  | < 0.1 µM | < 0.1 µM | > 1 µM | < 0.1 µM | ≤ 0.00316 µM
5 | CC(C)CNc1nccc(-c2sc(N3CCOCC3)nc2-c2ccc(F)c(NS(=O)(=O)c3cc(F)ccc3F)c2)n1 [Example 139] | < 0.1 µM | 0.00316 to 0.0316 µM | < 0.1 µM | 0.1 to 1 µM | < 0.1 µM | 0.1 to 1 µM | 
6 | CC(C)c1nc(-c2ccc(F)c(NS(=O)(=O)c3ccccc3F)c2)c(-c2ccnc(N[C@H]3CC[C@H](NS(C)(=O)=O)CC3)n2)s1 [Example 140] | < 0.1 µM | 0.00316 to 0.0316 µM | < 0.1 µM | < 0.1 µM | < 0.1 µM | < 0.1 µM | 
7 | CC(C)c1nc(-c2ccc(F)c(NS(=O)(=O)c3c(F)cccc3F)c2)c(-c2ccnc(N[C@H]3CC[C@H](NS(C)(=O)=O)CC3)n2)s1 [Example 141] | < 0.1 µM | 0.00316 to 0.0316 µM | < 0.1 µM | < 0.1 µM | < 0.1 µM | < 0.1 µM | 
8 | Nc1nccc(-c2sc(N3CCS(=O)(=O)CC3)nc2-c2cccc(NS(=O)(=O)c3cc(F)ccc3F)c2F)n1 [Example 142] | < 0.1 µM |  | < 0.1 µM | < 0.1 µM | < 0.1 µM | < 0.1 µM | ≤ 0.00316 µM
9 | C[C@@H]1CN(c2nc(-c3cccc(NS(=O)(=O)c4c(F)cccc4F)c3F)c(-c3ccnc(N)n3)s2)C[C@H](C)O1 [Example 143] | < 0.1 µM | 0.00316 to 0.0316 µM | 0.1 to 1 µM | 0.1 to 1 µM | 0.1 to 1 µM | 0.1 to 1 µM | 
10 | Nc1nccc(-c2sc(C3CCCCC3)nc2-c2cccc(NS(=O)(=O)c3cc(F)ccc3F)c2F)n1 [Example 144] | < 0.1 µM |  | < 0.1 µM | < 0.1 µM | < 0.1 µM | < 0.1 µM | ≤ 0.00316 µM
11 | Cc1ccc(F)c(S(=O)(=O)Nc2cccc(-c3nc(C(C)(C)C)sc3-c3ccnc(N)n3)c2F)c1 [Example 145] | < 0.1 µM |  | 0.1 to 1 µM | 0.1 to 1 µM | 0.1 to 1 µM | 0.1 to 1 µM | 0.0316 to 1 µM
12 | Cc1ccc(S(=O)(=O)Nc2cccc(-c3nc(C(C)(C)C)sc3-c3ccnc(N)n3)c2F)cc1 [Example 146] | < 0.1 µM |  | 0.1 to 1 µM | 0.1 to 1 µM | 0.1 to 1 µM | 0.1 to 1 µM | 0.0316 to 1 µM
13 | Cc1cccc(S(=O)(=O)Nc2cccc(-c3nc(C(C)(C)C)sc3-c3ccnc(N)n3)c2F)c1 [Example 147] | < 0.1 µM |  | 0.1 to 1 µM | 0.1 to 1 µM | 0.1 to 1 µM | 0.1 to 1 µM | 0.0316 to 1 µM
14 | CC(C)c1nc(-c2ccc(F)c(NS(=O)(=O)c3ccco3)c2)c(-c2ccnc(NCCCS(C)(=O)=O)n2)s1 [Example 148] | < 0.1 µM | 0.00316 to 0.0316 µM | > 1 µM | 1 to 10 µM | > 1 µM | 1 to 10 µM | 
15 | COc1ccc(F)cc1S(=O)(=O)Nc1cccc(-c2nc(C(C)C)sc2-c2ccnc(NCCS(C)(=O)=O)n2)c1 [Example 149] | < 0.1 µM |  | 0.1 to 1 µM | 0.1 to 1 µM | 0.1 to 1 µM | 0.1 to 1 µM | 0.0316 to 1 µM
16 | COc1ccc(F)cc1S(=O)(=O)Nc1cccc(-c2nc(C(C)C)sc2-c2ccnc(NC3CCN(S(C)(=O)=O)CC3)n2)c1 [Example 150] | 0.1 to 1 µM |  | 0.1 to 1 µM | 0.1 to 1 µM | 0.1 to 1 µM | 0.1 to 1 µM | 0.0316 to 1 µM
17 | CC(C)c1nc(-c2ccc(F)c(NS(=O)(=O)c3ccco3)c2)c(-c2ccnc(NC3CCN(S(C)(=O)=O)CC3)n2)s1 [Example 151] | < 0.1 µM | 0.00316 to 0.0316 µM | 0.1 to 1 µM | 0.1 to 1 µM | 0.1 to 1 µM | 0.1 to 1 µM | 
18 | COc1ccc(F)cc1S(=O)(=O)Nc1cccc(-c2nc(C(C)C)sc2-c2ccnc(NCC(C)C)n2)c1F [Example 152] | < 0.1 µM | 0.00316 to 0.0316 µM | < 0.1 µM | < 0.1 µM | < 0.1 µM | < 0.1 µM | 
19 | COc1ccc(F)cc1S(=O)(=O)Nc1cccc(-c2nc(C(C)C)sc2-c2ccnc(NC3CCN(S(C)(=O)=O)CC3)n2)c1F [Example 153] | < 0.1 µM | 0.00316 to 0.0316 µM | < 0.1 µM | < 0.1 µM | < 0.1 µM | < 0.1 µM | 
20 | CC(C)CNc1nccc(-c2sc(C(C)C)nc2-c2cccc(NS(=O)(=O)c3ccco3)c2F)n1 [Example 154] | < 0.1 µM |  | 0.1 to 1 µM | 0.1 to 1 µM | 0.1 to 1 µM | 0.1 to 1 µM | ≤ 0.00316 µM
21 | CC(C)CNc1nccc(-c2sc(C(C)C)nc2-c2cccc(NS(=O)(=O)c3cccnc3)c2)n1 [Example 155] | < 0.1 µM |  | 0.1 to 1 µM | 0.1 to 1 µM | 0.1 to 1 µM | 0.1 to 1 µM | ≤ 0.00316 µM
22 | CC(C)(C)c1nc(-c2c(F)ccc(NS(=O)(=O)c3cccc(F)c3)c2F)c(-c2ccnc(N)n2)s1 [Example 157] | < 0.1 µM |  | < 0.1 µM | < 0.1 µM | < 0.1 µM | < 0.1 µM | ≤ 0.00316 µM
23 | CC(C)Nc1nccc(-c2sc(C(C)C)nc2-c2cccc(NS(=O)(=O)c3cccc(F)c3)c2)n1 [Example 158] | < 0.1 µM |  | > 1 µM | 1 to 10 µM | > 1 µM | 1 to 10 µM | 0.0316 to 1 µM
24 | COCCNc1nccc(-c2sc(C(C)C)nc2-c2ccc(F)c(NS(=O)(=O)c3c(F)cccc3F)c2)n1 [Example 159] | 0.1 to 1 µM |  | 0.1 to 1 µM | 0.1 to 1 µM | 0.1 to 1 µM | 0.1 to 1 µM | 0.0316 to 1 µM
25 | CC(C)c1nc(-c2ccc(F)c(NS(=O)(=O)c3c(F)cccc3F)c2)c(-c2ccnc(NCCO)n2)s1 [Example 160] | 0.1 to 1 µM |  | 0.1 to 1 µM | 0.1 to 1 µM | 0.1 to 1 µM | 0.1 to 1 µM | 0.0316 to 1 µM

Source: patent US7994185B2, “Benzene sulfonamide thiazole and oxazole compounds” (Glaxo Smith Kline LLC, priority 2008, dated 2011)
